Measurements as given in patent US8232406B2, “c-MET protein kinase inhibitors” (Vertex Pharmaceuticals Incorporated, priority 2006, dated 2012).

These compounds were tested against c-MET (Homo sapiens, UniProt P08581) (assay: Ki determination for the inhibition of c-MET (standard radiometric 33P-ATP kinase assay, polyE4Y substrate)). Details: 1.0 nM c-Met, 35 μM ATP, 0.5 mg/mL polyE4Y, 20 min; competitive tight-binding fit.
Format: biochemical
Outline: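 Radiometric assay of 33P transfer from 33P-ATP (35 μM) to polyE4Y (0.5 mg/mL) by 1.0 nM c-Met in 100 mM HEPES pH 7.5, 10 mM MgCl2, 25 mM NaCl, 0.01% BSA, 1 mM DTT. TCA-quenched after 20 min, filter-captured, scintillation-counted; Ki fitted to a competitive tight-binding model.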

Chain of c-MET (P08581 25-1390): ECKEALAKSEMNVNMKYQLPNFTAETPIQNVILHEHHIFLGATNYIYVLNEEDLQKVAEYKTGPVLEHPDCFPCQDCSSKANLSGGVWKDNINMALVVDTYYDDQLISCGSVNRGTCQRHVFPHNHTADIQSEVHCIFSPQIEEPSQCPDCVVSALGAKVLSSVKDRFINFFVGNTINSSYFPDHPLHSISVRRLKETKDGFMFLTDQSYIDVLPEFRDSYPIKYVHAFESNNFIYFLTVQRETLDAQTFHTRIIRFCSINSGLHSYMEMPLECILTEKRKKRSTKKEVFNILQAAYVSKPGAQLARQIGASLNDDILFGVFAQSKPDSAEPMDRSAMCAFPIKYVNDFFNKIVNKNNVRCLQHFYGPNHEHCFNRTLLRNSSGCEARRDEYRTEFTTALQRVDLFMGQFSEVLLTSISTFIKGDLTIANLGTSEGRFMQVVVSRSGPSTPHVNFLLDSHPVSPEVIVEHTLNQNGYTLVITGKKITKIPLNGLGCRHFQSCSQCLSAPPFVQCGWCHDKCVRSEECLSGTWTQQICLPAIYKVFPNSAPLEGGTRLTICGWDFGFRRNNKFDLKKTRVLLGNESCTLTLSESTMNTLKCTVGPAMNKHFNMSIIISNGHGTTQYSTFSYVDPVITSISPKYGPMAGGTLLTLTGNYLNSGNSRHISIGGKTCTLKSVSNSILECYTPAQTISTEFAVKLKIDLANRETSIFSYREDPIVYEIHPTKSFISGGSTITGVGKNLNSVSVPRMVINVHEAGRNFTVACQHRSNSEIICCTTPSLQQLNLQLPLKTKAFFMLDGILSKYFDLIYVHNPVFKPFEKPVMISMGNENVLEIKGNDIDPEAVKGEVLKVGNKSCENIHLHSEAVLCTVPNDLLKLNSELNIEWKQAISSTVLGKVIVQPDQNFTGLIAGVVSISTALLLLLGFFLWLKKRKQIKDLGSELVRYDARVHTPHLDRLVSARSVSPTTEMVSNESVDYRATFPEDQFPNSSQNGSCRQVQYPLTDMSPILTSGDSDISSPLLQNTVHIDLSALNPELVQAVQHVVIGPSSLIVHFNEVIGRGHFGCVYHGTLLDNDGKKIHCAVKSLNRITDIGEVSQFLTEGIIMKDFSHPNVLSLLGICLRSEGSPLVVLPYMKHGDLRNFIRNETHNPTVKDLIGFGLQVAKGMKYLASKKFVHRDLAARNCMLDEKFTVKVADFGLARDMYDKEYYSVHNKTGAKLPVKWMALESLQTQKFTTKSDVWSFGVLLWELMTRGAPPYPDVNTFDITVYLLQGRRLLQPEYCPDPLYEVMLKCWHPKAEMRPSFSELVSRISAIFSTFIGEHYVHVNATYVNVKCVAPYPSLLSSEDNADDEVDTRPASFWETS

| Compound | Ki |
| --- | --- |
| Nc1ncc(-c2cnn(C3CCNCC3)c2)cc1-n1nnnc1-c1cccc(F)c1F [I-E-1] | 100 to 1000 nM |
| Nc1ncc(-c2cccc(NC(=O)NC3CCCCO3)c2)cc1-c1nnnn1-c1cccc(F)c1F (centres unmarked) [I-A-273] | ≤ 100 nM |
| COc1ccc(-c2cnc(N)c(-c3nncn3-c3cccc(Cl)c3Cl)c2)cc1OC [I-A-77] | 100 to 1000 nM |
| COc1cc(-c2cnc(N)c(-c3nnnn3-c3cccc(F)c3F)c2)cc(OC)c1OC [I-A-296] | 100 to 1000 nM |
| Nc1ncc(-c2cnn(C3CCN(C(=O)CO)CC3)c2)cc1-c1nnnn1-c1cccc(Cl)c1F [I-A-447] | ≤ 100 nM |
| Nc1ncc(-c2cc(C(=O)O)cs2)cc1-c1nnnn1-c1cccc(F)c1F [I-A-185] | 100 to 1000 nM |
| Nc1ncc(-c2ccc(N3CCNCC3)cc2)cc1-c1nc2cc(F)ccc2n1-c1cccc(Cl)c1F [I-D-20] | 100 to 1000 nM |
| Nc1ncc(-c2ccc(NC(=O)Nc3cccnc3)cc2)cc1-c1nnnn1-c1cccc(F)c1F [I-A-278] | 100 to 1000 nM |
| Nc1ncc(-c2cnn(C3CCNCC3)c2)cc1-c1nnnn1-c1cccc(Cl)c1F [I-A-626] | ≤ 100 nM |
| C[C@@H](C(=O)N1CC=C(c2cnc(N)c(-c3nnnn3-c3cccc(F)c3F)c2)CC1)N1CCCC1=O [I-A-517] | 100 to 1000 nM |
| CN1CCN(c2ccc(-c3cnc(N)c(-c4nnnn4-c4cccc(F)c4F)n3)cc2)CC1 [I-A-46] | ≤ 100 nM |
| CN1CCN(c2ccc(-c3cnc(N)c(-c4nc5cc(F)ccc5n4-c4cccc(Cl)c4F)c3)cc2)CC1 [I-D-21] | 100 to 1000 nM |
| Nc1ncc(-c2cnn(CC(O)CO)c2)cc1-c1nnnn1-c1cccc(F)c1F (centres unmarked) [I-A-368] | ≤ 100 nM |
| Nc1ncc(-c2ccc(NC(=O)Nc3cccs3)cc2)cc1-c1nnnn1-c1cccc(F)c1F [I-A-282] | 100 to 1000 nM |
| CN1CCN(c2ccc(-c3cnc(N)c(-c4nc5cccnc5n4-c4cccc(Cl)c4F)c3)cc2)CC1 [I-D-17] | 100 to 1000 nM |
| CC(=O)Nc1ccc(-c2cnc(N)c(-c3nc4cnccc4n3-c3cccc(F)c3F)c2)cc1 [I-D-13] | ≤ 100 nM |
| CN1CCN(c2ccc(-c3cnc(N)c(-c4ncsc4-c4cccc(Cl)c4Cl)c3)cc2)CC1 [I-C-11] | 100 to 1000 nM |
| Nc1ncc(-c2cnn(C(c3ccccc3)(c3ccccc3)c3ccccc3)c2)cc1-c1nnnn1-c1cccc(F)c1F [I-A-365] | 100 to 1000 nM |

| Compound | Ki |
| --- | --- |
| CC(=O)Nc1cc(-c2cnc(N)c(-c3nnnn3-c3cccc(Cl)c3F)c2)ccc1CN1CCCC1 [I-A-398] | ≤ 100 nM |
| Nc1ncc(-c2cnn(CCN3CCCC3)c2)cc1-c1nnnn1-c1cccc(F)c1F [I-A-407] | ≤ 100 nM |
| Nc1ncc(-c2cnn([C@H]3CCCNC3)c2)cc1-c1nnnn1-c1cccc(F)c1F [I-A-405] | ≤ 100 nM |
| Nc1ncc(-c2cnn([C@H]3CCCNC3)c2)nc1-c1nnnn1-c1cccc(F)c1F [I-A-655] | ≤ 100 nM |
| Nc1ncc(C2=CCN(C(=O)C3CCCNC3)CC2)cc1-c1nnnn1-c1cccc(F)c1F (centres unmarked) [I-A-423] | ≤ 100 nM |
| CN(C)CCn1cc(-c2cnc(N)c(-c3nnnn3-c3cccc(Cl)c3Cl)c2)cn1 [I-A-410] | ≤ 100 nM |
| Nc1ncc(-c2cnc(C3CCNCC3)s2)cc1-c1nnnn1-c1cccc(Cl)c1F [I-A-491] | ≤ 100 nM |
| Nc1ncc(-c2cnn(C3CCN(C4CCC4)CC3)c2)cc1-c1nnnn1-c1cccc(F)c1F [I-A-451] | ≤ 100 nM |
| Nc1ncc(-c2ccc(N3CCNCC3)cc2)cc1-c1nc2cnccc2n1-c1cccc(F)c1F [I-D-23] | ≤ 100 nM |
| NCc1cccc(-c2cnc(N)c(-c3nnnn3-c3cccc(Cl)c3Cl)c2)c1 [I-A-87] | ≤ 100 nM |
| CC(=O)Nc1cccc(-c2cnc(N)c(-c3nc4cnccc4n3-c3cccc(F)c3F)c2)c1 [I-D-12] | ≤ 100 nM |
| CC(C)N1CCC(n2cc(-c3cnc(N)c(-c4nncn4-c4cccc(Cl)c4F)c3)cn2)CC1 [I-A-471] | ≤ 100 nM |
| Nc1ncc(-c2ccc(CN3CCN(CCO)CC3)cc2)cc1-c1nnnn1-c1cccc(Cl)c1Cl [I-A-104] | ≤ 100 nM |
| Nc1ncc(C2=CCN(C(=O)[C@@H]3CCOC3)CC2)cc1-c1nnnn1-c1cccc(F)c1F [I-A-527] | ≤ 100 nM |
| Nc1ncc(-c2cc3c(s2)CNCC3)cc1-c1nnnn1-c1cccc(F)c1F [I-A-492, 3-(1-(2,3-Difluorophenyl)-1H-tetrazol-5-yl)-5-(4,5,6,7-tetrahydrothieno[2,3-c]pyridin-2-yl)pyridin-2-amine] | ≤ 100 nM |
| Nc1ncc(C2=CCN(C(=O)[C@@H]3CCC(=O)N3)CC2)cc1-c1nnnn1-c1cccc(F)c1F [I-A-642] | ≤ 100 nM |
| Nc1ncc(-c2cnn(C3CCN(CC4CC4)CC3)c2)cc1-c1nnnn1-c1cccc(F)c1F [I-A-449] | ≤ 100 nM |
| Nc1ncc(-c2cnn(C3CCN(CCO)CC3)c2)cc1-c1nnnn1-c1cccc(Cl)c1F [I-A-469] | ≤ 100 nM |

The next lines start with the values.

| Ki | Compound |
| --- | --- |
| ≤ 100 nM | CC(C)(C)CC(=O)Nc1ccc(-c2cnc(N)c(-c3nnnn3-c3cccc(F)c3F)c2)cc1 [I-A-199] |
| 100 to 1000 nM | NCc1ccc(-c2cnc(N)c(-c3nnnn3-c3cccc(F)c3F)c2)cn1 [I-A-155] |
| ≤ 100 nM | COC(=O)C(C)NC(=O)Nc1ccc(-c2cnc(N)c(-c3nnnn3-c3cccc(F)c3F)c2)cc1 (centres unmarked) [I-A-331] |
| 100 to 1000 nM | CN(C)Cc1ccc(-c2cnc(N)c(-c3nnnn3-c3cc(Cl)ccc3F)c2)cc1 [I-A-593] |
| ≤ 100 nM | CN(C)Cc1ccc(-c2cnc(N)c(-c3nnsc3-c3cccc(Cl)c3Cl)c2)cc1 [I-C-5] |
| 100 to 1000 nM | Cc1ccc(Cl)cc1-n1nnnc1-c1cc(-c2ccc(CN(C)C)cc2)cnc1N [I-A-579] |
| ≤ 100 nM | Nc1ncc(-c2ccc(CN3CCC(O)CC3)cc2)cc1-c1nnnn1-c1cccc(Cl)c1Cl [I-A-97] |
| ≤ 100 nM | CC(C)CN(C)Cc1ccc(-c2cnc(N)c(-c3nnnn3-c3cccc(F)c3F)c2)cc1 [I-A-150] |
| ≤ 100 nM | CC(c1ccc(-c2cnc(N)c(-c3nnnn3-c3cccc(F)c3F)c2)cc1)N1CCCC1 (centres unmarked) [I-A-180] |
| ≤ 100 nM | Nc1ncc(-c2ccc3[nH]ncc3c2)cc1-c1nnnn1-c1cccc(F)c1F [I-A-347] |
| ≤ 100 nM | Nc1ccc(-c2cnc(N)c(-c3nnnn3-c3cccc(F)c3F)c2)cc1[N+](=O)[O-] [I-A-312] |
| ≤ 100 nM | Nc1ncc(-c2ccc(CN3CCCC3)cc2)cc1-c1nnnn1-c1c(F)ccc(F)c1Cl [I-A-620] |
| 100 to 1000 nM | CN(C)Cc1ccc(-c2cnc(N)c(-c3nnnn3-c3cccc(Cl)c3)c2)cc1 [I-A-358] |
| ≤ 100 nM | Nc1ncc(-c2ccc3c(c2)CNCC3)cc1-c1nnnn1-c1cccc(F)c1F [I-A-456] |
| ≤ 100 nM | CNCc1ccc(-c2cnc(N)c(-c3nnnn3-c3cccc(F)c3F)c2)cc1 [I-A-200] |
| ≤ 100 nM | CN(C)Cc1ccc(-c2cnc(N)c(-c3nnnn3-c3c(F)ccc(Cl)c3F)c2)cc1 [I-A-377] |
| 100 to 1000 nM | COc1ccc(F)cc1-n1nnnc1-c1cc(-c2ccc(CN3CCCC3)cc2)cnc1N [I-A-602] |
| ≤ 100 nM | COC(=O)C(C)(C)c1ccc(-c2cnc(N)c(-c3nnnn3-c3cccc(F)c3F)c2)cc1 [I-A-207] |
| 100 to 1000 nM | N#Cc1ccc(-c2cnc(N)c(-c3nnnn3-c3cccc(F)c3F)c2)cc1 [I-A-229] |
| ≤ 100 nM | Nc1ncc(-c2ccc(CN3CCCC3)cc2)cc1-c1nnnn1-c1cccc(Cl)c1Cl [I-A-94] |
| ≤ 100 nM | CN(C)Cc1ccc(-c2cnc(N)c(-c3nnnn3-c3c(F)cccc3F)c2)cc1 [I-A-619] |
| 100 to 1000 nM | CN(C)Cc1ccc(-c2cnc(N)c(-c3nnnn3-c3cc(Cl)cc(Cl)c3)c2)cc1 [I-A-590] |
| ≤ 100 nM | Nc1ncc(-c2ccc(O)cc2)cc1-c1nnnn1-c1cccc(F)c1F [I-A-144] |
